In US11679124B2, “Composition for use in the treatment of conditions caused by calcium deficiency” (Epicyt Pharma AB, priority 2018, dated 2023):

Key:
Format in all cases: cell-based, human
Caco-2 cells = experiment: Ca2+ transport across Caco-2 monolayer without calcium gradient; details: 10 nM 1.25(OH)2-vitamin D3, last 48 hours; no Ca2+ gradient, 1.8 mM on each side
Protocol: The Caco-2 cells were cultivated in on permeable support for 11-14 days, slightly modified according to Giuliano A. R., & Wood R. J. On the day of the experiments the trans-epithelial electrical resistance was measured and only preparations with values between 400 and 900 Ohms×cm^2 were counted. Tested substances were given in the top compartment and effect as read after 24 to 48 h. Ca^2+ flux was measured using liquid scintillation comparing the lower compartment with the upper.
In the present experiment the Caco-2 cells were cultured and grown to epithelium-shaped confluence over 14 days. The following experiments were performed according to Giuliano A. R., & Wood R. J. The effect of 10 nM 1.25(OH)2-vitamin D3 on the calcium transport was tested during the last 48 hours. Flux was tested without calcium (Ca^2+) gradient, concentration of calcium was 1.8 mM on each side of the layer of cells.
In the present experiment the Caco-2 cells were cultured and grown to epithelium-shaped confluence over 12 days. The cells were then grown in another 4 days in presence of 0.1 mM GCA, or in presence with 0.5 mM butyrate, or in presence of the GCA and butyrate in combination.
The effect of 10 nM 1.25(OH)2-vitamin D3 on the calcium transport was tested during the last 48 hours. […]

Hsp 90β = Hsp 90β expression in Caco-2 cells, western blot; details: 48 h, GCA 1×10^−4 M, butyrate 5×10^−4 M, vs. vehicle control
Protocol: Caco-2 cells with a passage or about 45 (number of time they have been divided) (Sigma-Aldrich Stockholm Sweden) were cultured in Dulbecco's Modified Eagle's Medium (Life Technologies Invitrogen AB, Lidingo, Sweden), with 10% Foetal Bovine Serum (FBS) (Life Technologies), 1% Non Essential Amino Acid (NEAA) (Life Technologies), 100 IU/mL Penicillin Streptomycin (Pen-Strep) (Life Technologies). The cells were incubated in 37° C. with 5% CO2 and cultured in a cell culture flask (BD Falcon®, VWR Internationals, Stockholm, Sweden) and the medium was changed at Monday, Wednesday and Friday every week. […]
For the protein harvesting, the cells was scraped into lysis buffer in protein kinase blocking solution (1% Triton x-100, EDTA; ethylenediaminetetraacetic acid) containing protein kinase inhibitor buffer (10 mM potassium phosphate buffer pH 6.8, 10 mM 3-[(3-cholamidopropyl) dimethylammonio]-1-propane sulphonate (CHAPS: Boehringer Mannheim, Mannheim, Germany) and protease inhibitor cocktail tablet Complete (Roche Diagnostics AB, Stockholm, Sweden). After shaking several times on ice, the cell debris was removed by centrifugation (10000×g for 10 min at 4° C.) and the supernatant's protein content was analysed using the Bradford method. […]

claudin-2 = experiment: Claudin-2 protein expression in Caco-2 cells, western blot; details: vitamin D 10 μM or 100 μM, geldanamycin 0.5 μM
Protocol: Caco-2 cells with a passage or about 45 (number of time they have been divided) (Sigma-Aldrich Stockholm Sweden) were cultured in Dulbecco's Modified Eagle's Medium (Life Technologies Invitrogen AB, Lidingo, Sweden), with 10% Foetal Bovine Serum (FBS) (Life Technologies), 1% Non Essential Amino Acid (NEAA) (Life Technologies), 100 IU/mL Penicillin Streptomycin (Pen-Strep) (Life Technologies). The cells were incubated in 37° C. with 5% CO2 and cultured in a cell culture flask (BD Falcon®, VWR Internationals, Stockholm, Sweden) and the medium was changed at Monday, Wednesday and Friday every week.
The cells were cultured for approximately 1 week before they were detached (0.25% trypsin-EDTA, Life Technologies) and seeded in 6 well plates with semipermeable filter inserts (3 μm pore size, BD Biosciences, Le Pont de Claix, France), 200 000 cells/well. At confluence the culture medium was changed to FBS-free in both the upper and lower well compartment and to the lower compartment also a mixture of […] insulin, 0.55 μg/mL transferring and 6.7 ng/mL selenium (ITS, Life Technologies) was added to establish cell polarity and structural differentiation (6-7). The cell monolayers were let to cultivate for 14 days before experiments. […]

C=C1/C(=C\C=C2/CCC[C@]3(C)[C@@H]([C@H](C)CCCC(C)(C)O)CC[C@@H]23)C[C@@H](O)C[C@@H]1O [1.25(OH)2-vitamin D3]
calcium transport (Experiment 3) (Caco-2 cells): active transport of vitamin D was confirmed

C[C@H](CCC(=O)NCC(=O)O)[C@H]1CC[C@H]2[C@@H]3[C@H](O)C[C@@H]4C[C@H](O)CC[C@]4(C)[C@H]3C[C@H](O)[C@]12C [GCA, glycocholic acid]
Hsp 90β protein expression normalized to GAPDH (Hsp 90β): no effect by itself

vitamin-D
claudin-2 protein expression (claudin-2): increase claudin-2 protein expression
